In paper PMC10669129 (2023):

Experiments:
[1] = system: 5-HT-binding DNA aptamer (44-mer) (DNA, aptamer) CGACTGGTAGGCAGATAGGGGAAGCTGATTCGATGCGTGGGTCG; assay: single-frequency EIS; settings: Mg2+ 2 mM, 1X PBS; some cross-reactivity; microfluidic flow; concentration not given
[2] = system: 5-HT-binding DNA aptamer (44-mer) (DNA, aptamer) CGACTGGTAGGCAGATAGGGGAAGCTGATTCGATGCGTGGGTCG; assay: square wave voltammetry; settings: Mg2+ 2 mM, 1X PBS; apparent; 30 min exposure in 1X PBS; read in ferri/ferrocyanide 5 mM, pH 7.1; Hill fit
[3] = system: 5-HT-binding DNA aptamer (44-mer) (DNA, aptamer) CGACTGGTAGGCAGATAGGGGAAGCTGATTCGATGCGTGGGTCG; assay: electrochemical impedance spectroscopy; settings: Mg2+ 2 mM, 1X PBS; apparent; 30 min exposure in 1X PBS; read in ferri/ferrocyanide 5 mM, pH 7.1; Hill fit
[4] = system: 5-HT-binding DNA aptamer (44-mer) (DNA, aptamer) CGACTGGTAGGCAGATAGGGGAAGCTGATTCGATGCGTGGGTCG; assay: EIS and SWV; single-frequency EIS; settings: Mg2+ 2 mM, 1X PBS; selectivity test; highest concentration not given in text

Structure (SMILES) | binding [1] | binding [4] | also measured
NCCc1c[nH]c2ccc(O)cc12 |  |  | kd,eff [2]: 306.76 ± 41.54 nM; kd,eff [3]: 343.54 ± 61.03 nM
NC[C@H](O)c1ccc(O)c(O)c1 |  | no | 
N[C@@H](Cc1c[nH]c2ccccc12)C(=O)O | weak |  | 

Now from value to compound, other results behind:

binding [1] | binding [4] | Structure (SMILES) | also measured
weak |  | N[C@@H](Cc1c[nH]c2ccc(O)cc12)C(=O)O | 
 | no | NCCc1ccc(O)c(O)c1 | 
weak |  | O=C(O)Cc1c[nH]c2ccc(O)cc12 | 
